Patent US9169199B2, “Cycloalkyl guanidine F1F0-ATPase inhibitors and therapeutic uses thereof” (Lycera Corporation, priority 2010, dated 2015)

Key:
[1] = biological target: T1, F1F0-ATPase (Bos taurus, UniProt P13621); assay: Inhibition of ATP synthesis by the F1F0-ATPase; type: biochemical
T1 construct: from tissue
Procedure: (§1) Compounds in Example 4 above were tested for activity against F1F0-ATPase by measuring ATP synthesis. In addition, the compounds were assessed for cytotoxicity in Ramos cells. Inhibition of ATP synthesis by the F1F0-ATPase and cytotoxicity in Ramos cells were measured according to the procedures described in K. M. Johnson et al. Chemistry & Biology 2005, 12, 485-496.

[2] = tested on: Ramos cells; assay: Cytotoxicity in Ramos cells; type: cell-based; settings: Homo sapiens, read-out: Ramos cell EC50
Procedure: as §1

| Compound | IC50 [1] | EC50 [2] |
| --- | --- | --- |
| CCOC(=O)N[C@H]1CC[C@H](N/C(=N\C(=O)c2ccc(F)c(F)c2)NCc2ccc(F)cc2F)CC1 [Compound 58] | < 10 µM | < 10 µM |
| CCOC(=O)N[C@H]1CC[C@H](N/C(=N\C(=O)c2ccc(F)c(F)c2)NCc2cc(F)cc(F)c2)CC1 [Compound 59] | < 10 µM | < 10 µM |
| CCOC(=O)N[C@H]1CC[C@H](N/C(=N\C(=O)c2ccc(F)c(F)c2)NCc2ccc(F)cc2Cl)CC1 [Compound 60] | < 10 µM | < 10 µM |
| CCOC(=O)N[C@H]1CC[C@H](N/C(=N\C(=O)c2ccc(F)c(F)c2)NCc2ccc(F)c(Cl)c2)CC1 [Compound 61] | < 10 µM | < 10 µM |
| CCOC(=O)N[C@H]1CC[C@H](N/C(=N\C(=O)c2ccc(F)c(F)c2)NCc2ccc(Cl)c(F)c2)CC1 [Compound 62] | < 10 µM | < 10 µM |
| CCOC(=O)N[C@H]1CC[C@H](N/C(=N\C(=O)c2ccc(F)c(F)c2)NCc2ccc(Cl)cc2F)CC1 [Compound 63] | < 10 µM | < 10 µM |
| CCOC(=O)N[C@H]1CC[C@H](N/C(=N\C(=O)c2ccc(F)c(F)c2)Nc2ccccc2C2CC2)CC1 [Compound 66] | < 10 µM | < 10 µM |
| O=C(/N=C(/Nc1ccccc1C1CC1)N[C@H]1CC[C@H](Nc2ncccn2)CC1)c1ccc(F)c(F)c1 [Compound 67] | < 10 µM | > 10 µM |
| O=C(/N=C(/Nc1ccc(Cl)c(F)c1)N[C@H]1CC[C@H](O)CC1)c1ccc(C(F)(F)F)cc1 [Compound 68] | < 10 µM | < 10 µM |
| O=C(/N=C(/Nc1cccc(Cl)c1F)N[C@H]1CC[C@H](O)CC1)c1ccc(C(F)(F)F)cc1 [Compound 69] | < 10 µM | < 10 µM |
| O=C(Cc1ccc(Cl)cc1)/N=C(\Nc1cc(F)cc(Cl)c1)N[C@H]1CC[C@H](O)CC1 [Compound 71] | < 10 µM | > 10 µM |
| O=C(/N=C(/NCc1ccc(Cl)cc1F)N[C@H]1CC[C@H](Nc2ncccn2)CC1)c1ccc(F)c(F)c1 [Compound 72] | < 10 µM | < 10 µM |
| O=C(/N=C(/NCc1ccc(F)cc1Cl)N[C@H]1CC[C@H](Nc2ncccn2)CC1)c1ccc(F)c(F)c1 [Compound 73] | < 10 µM | < 10 µM |
| O=C(/N=C(/NCc1ccc(F)c(Cl)c1)N[C@H]1CC[C@H](Nc2ncccn2)CC1)c1ccc(F)c(F)c1 [Compound 74] | < 10 µM | < 10 µM |
| O=C(/N=C(/NCc1ccc(Cl)c(F)c1)N[C@H]1CC[C@H](Nc2ncccn2)CC1)c1ccc(F)c(F)c1 [Compound 75] | < 10 µM | < 10 µM |
| CCOC(=O)N[C@H]1CC[C@H](N/C(=N\C(=O)c2ccc(F)c(F)c2)NC2CCCCC2)CC1 [Compound 76] | < 10 µM | > 10 µM |
| CCOC(=O)N[C@H]1CC[C@H](N/C(=N\C(=O)c2ccc(F)c(F)c2)NC2CCC(C)CC2)CC1 (stereo partly drawn) [Compound 77] | < 10 µM | < 10 µM |
| CC(C)(C)OC(=O)N[C@H]1CC[C@H](N/C(=N\C(=O)c2ccc(F)c(F)c2)Nc2cccc(Cl)c2)CC1 [Compound 78] | < 10 µM | < 10 µM |
| N[C@H]1CC[C@H](N/C(=N\C(=O)c2ccc(F)c(F)c2)Nc2cccc(Cl)c2)CC1 [Compound 79] | > 10 µM | < 10 µM |

| Compound | IC50 [1] | EC50 [2] |
| --- | --- | --- |
| CCOC(=O)N[C@H]1CC[C@H](N/C(=N\C(=O)c2ccc(F)c(F)c2)Nc2cc(C(C)(C)C)on2)CC1 [Compound 80] | > 10 µM | > 10 µM |
| CCOC(=O)N[C@H]1CC[C@H](N/C(=N\C(=O)c2ccc(F)c(F)c2)Nc2ccc(F)c(Cl)c2)CC1 [Compound 81] | < 10 µM | < 10 µM |
| CCOC(=O)N[C@H]1CC[C@H](N/C(=N\C(=O)c2ccc(F)c(F)c2)Nc2cccc(Cl)c2F)CC1 [Compound 82] | < 10 µM | < 10 µM |
| O=C(/N=C(/Nc1ccc(F)c(Cl)c1)N[C@H]1CC[C@H](Nc2ncccn2)CC1)c1ccc(F)c(F)c1 [Compound 83] | < 10 µM | < 10 µM |
| O=C(/N=C(/Nc1cccc(Cl)c1F)N[C@H]1CC[C@H](Nc2ncccn2)CC1)c1ccc(F)c(F)c1 [Compound 84] | < 10 µM | > 10 µM |
| CCOC(=O)N[C@H]1CC[C@@H](N/C(=N\C(=O)c2ccc(F)c(F)c2)Nc2cc(F)cc(Cl)c2)CC1 [Compound 85] | < 10 µM | < 10 µM |
| CC1CCC(N/C(=N/C(=O)c2ccc(F)c(F)c2)N[C@H]2CC[C@H](Nc3ncccn3)CC2)CC1 (stereo partly drawn) [Compound 86] | < 10 µM | < 10 µM |
| O=C(/N=C(/NC1CCCCC1)N[C@H]1CC[C@H](Nc2ncccn2)CC1)c1ccc(F)c(F)c1 [Compound 87] | < 10 µM | < 10 µM |
| O=C(/N=C(/Nc1cccc(Cl)c1)N[C@H]1CC[C@H](Nc2ccccn2)CC1)c1ccc(F)c(F)c1 [Compound 88] | < 10 µM | < 10 µM |
| CCNC(=O)[C@H]1CC[C@@H](N/C(=N\C(=O)c2ccc(F)c(F)c2)Nc2cc(F)cc(Cl)c2)CC1 [Compound 89] | < 10 µM | < 10 µM |
| O=C(/N=C(/NCc1ccccc1Cl)N[C@H]1CC[C@H](Nc2ncccn2)CC1)c1ccc(F)c(F)c1 [Compound 90] | < 10 µM | < 10 µM |
| O=C(/N=C(/NCc1ccc(Cl)cc1)N[C@H]1CC[C@H](Nc2ncccn2)CC1)c1ccc(F)c(F)c1 [Compound 91] | < 10 µM | < 10 µM |
| O=C(/N=C(/NCc1ccccc1C(F)(F)F)N[C@H]1CC[C@H](Nc2ncccn2)CC1)c1ccc(F)c(F)c1 [Compound 92] | < 10 µM | < 10 µM |
| O=C(/N=C(/NCc1cccc(C(F)(F)F)c1)N[C@H]1CC[C@H](Nc2ncccn2)CC1)c1ccc(F)c(F)c1 [Compound 93] | < 10 µM | < 10 µM |
| O=C(/N=C(/Nc1cccc(C(F)(F)F)c1)N[C@H]1CC[C@H](Nc2ncccn2)CC1)c1ccc(F)c(F)c1 [Compound 94] | < 10 µM | < 10 µM |
| CCOC(=O)N[C@H]1CC[C@H](N/C(=N\C(=O)c2ccc(F)c(F)c2)NC2CCC(F)(F)CC2)CC1 [Compound 95] | < 10 µM | > 10 µM |
| CS(=O)(=O)N[C@H]1CC[C@H](N/C(=N/C(=O)c2ccc(F)c(F)c2)Nc2cc(F)cc(Cl)c2)CC1 [Compound 96] | < 10 µM | < 10 µM |
| CS(=O)(=O)N[C@H]1CC[C@H](N/C(=N/C(=O)c2ccc(F)c(F)c2)Nc2cccc(Cl)c2)CC1 [Compound 97] | > 10 µM | < 10 µM |
| CCOC(=O)N[C@H]1CC[C@H](N/C(=N/C(=O)c2ccc(F)c(F)c2)Nc2ccc(F)cc2C2CC2)CC1 [Compound 98] | < 10 µM | < 10 µM |

| Compound | IC50 [1] | EC50 [2] |
| --- | --- | --- |
| O=C(/N=C(/Nc1cc(F)cc(Cl)c1)N[C@H]1CC[C@@H](C(=O)O)CC1)c1ccc(F)c(F)c1 [Compound 99] | > 10 µM | > 10 µM |
| CC(=O)N[C@H]1CC[C@H](N/C(=N\C(=O)c2ccc(F)c(F)c2)Nc2cc(F)cc(Cl)c2)CC1 [Compound 100] | < 10 µM | < 10 µM |
| O=C(/N=C(/Nc1cc(F)cc(Cl)c1)N[C@H]1CC[C@H](NC(=O)C2CC2)CC1)c1ccc(F)c(F)c1 [Compound 101] | < 10 µM | < 10 µM |
| CC(C)(C)C(=O)N[C@H]1CC[C@H](N/C(=N\C(=O)c2ccc(F)c(F)c2)Nc2cc(F)cc(Cl)c2)CC1 [Compound 102] | < 10 µM | < 10 µM |
| CCOC(=O)N[C@H]1CC[C@H](N/C(=N\C(=O)c2ccc(F)c(F)c2)NC(C)(C)C)CC1 [Compound 103] | > 10 µM | > 10 µM |
| CCOC(=O)N[C@H]1CC[C@H](N/C(=N\C(=O)c2ccc(F)c(F)c2)NC2CC2)CC1 [Compound 104] | > 10 µM | > 10 µM |
| CCOC(=O)N[C@H]1CC[C@H](N/C(=N\C(=O)c2ccc(F)c(F)c2)NC(C)(C)C(F)(F)F)CC1 [Compound 105] | > 10 µM | > 10 µM |
| CCOC(=O)N[C@H]1CC[C@H](N/C(=N\C(=O)c2ccc(F)c(F)c2)NC2(C)CCC2)CC1 [Compound 106] | > 10 µM | > 10 µM |
| CCOC(=O)N[C@H]1CC[C@H](N/C(=N\C(=O)c2ccc(F)c(F)c2)NCC(F)(F)F)CC1 [Compound 107] | > 10 µM | > 10 µM |
| CC(C)(C)N/C(=N/C(=O)c1ccc(F)c(F)c1)N[C@H]1CC[C@H](O)CC1 [Compound 108] | > 10 µM | > 10 µM |
| CCOC(=O)N[C@H]1CC[C@H](N/C(=N\C(=O)c2ccc(F)c(F)c2)NC2CCCC2)CC1 [Compound 109] | > 10 µM | > 10 µM |
| CCOC(=O)N[C@H]1CC[C@H](N/C(=N\C(=O)c2ccc(C(F)(F)F)cc2)NC2CCCC2)CC1 [Compound 110] | < 10 µM | > 10 µM |
| CCOC(=O)N[C@H]1CC[C@H](N/C(=N\C(=O)c2ccc(C(F)(F)F)cc2)NC(C)(C)C)CC1 [Compound 111] | < 10 µM | > 10 µM |
| CC(C)(C)N/C(=N/C(=O)c1ccc(C(F)(F)F)cc1)N[C@H]1CC[C@H](Nc2ncccn2)CC1 [Compound 112] | > 10 µM | > 10 µM |
| CC1(N/C(=N/C(=O)c2ccc(C(F)(F)F)cc2)N[C@H]2CC[C@H](Nc3ncccn3)CC2)CCC1 [Compound 113] | < 10 µM | < 10 µM |
| O=C(/N=C(/NC1CCCC1)N[C@H]1CC[C@H](Nc2ncccn2)CC1)c1ccc(C(F)(F)F)cc1 [Compound 114] | < 10 µM | < 10 µM |
| O=C(/N=C(/Nc1cc(F)cc(Cl)c1)N[C@H]1CC[C@H](Nc2ncccn2)CC1)c1ccc(C(F)(F)F)cc1 [Compound 115] | < 10 µM | < 10 µM |
| O=C(/N=C(/Nc1cccc(C(F)(F)F)c1)N[C@H]1CC[C@H](Nc2ncccn2)CC1)c1ccc(C(F)(F)F)cc1 [Compound 116] | < 10 µM | < 10 µM |
| O=C(/N=C(/Nc1cc(F)cc(Cl)c1)N[C@H]1CC[C@H](Nc2cnccn2)CC1)c1ccc(F)c(F)c1 [Compound 117] | < 10 µM | < 10 µM |
